Patent US20250049798A1, “WEE1 PROTEIN KINASE DEGRADATION AGENT AND USE THEREOF” (HANGZHOU GLUBIO PHARMACEUTICAL CO. LTD., priority 2021, published 2025)
Converted amounts (≈) assume the structure as drawn.

Target: HiBiT tagged Wee1 (Homo sapiens, UniProt P30291)
Assay: Wee1 protein degradation assay (HiBiT assay)
Type: cell-based
Conditions: engineered HT-1080 cells, 20 hours

HiBiT tagged Wee1, sequence (P30291 whole entry): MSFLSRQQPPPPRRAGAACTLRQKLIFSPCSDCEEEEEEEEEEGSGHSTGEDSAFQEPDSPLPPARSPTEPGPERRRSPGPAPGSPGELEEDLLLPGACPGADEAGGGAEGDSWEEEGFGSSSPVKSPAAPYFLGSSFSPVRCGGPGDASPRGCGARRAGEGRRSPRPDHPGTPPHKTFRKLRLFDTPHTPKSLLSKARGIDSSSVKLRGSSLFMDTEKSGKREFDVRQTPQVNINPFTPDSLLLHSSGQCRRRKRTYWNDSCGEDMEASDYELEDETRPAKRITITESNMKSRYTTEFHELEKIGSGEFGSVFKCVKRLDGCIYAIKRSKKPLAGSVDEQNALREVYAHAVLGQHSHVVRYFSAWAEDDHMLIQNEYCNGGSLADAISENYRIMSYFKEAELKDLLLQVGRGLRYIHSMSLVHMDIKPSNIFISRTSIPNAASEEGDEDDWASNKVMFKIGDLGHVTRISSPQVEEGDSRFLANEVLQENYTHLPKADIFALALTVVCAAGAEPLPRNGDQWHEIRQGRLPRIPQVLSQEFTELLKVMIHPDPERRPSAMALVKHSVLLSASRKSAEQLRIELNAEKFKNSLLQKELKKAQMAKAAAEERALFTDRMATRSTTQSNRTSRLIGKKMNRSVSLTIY

DC50 [µM] | Compound
< 0.1 | C=CCn1c(=O)c2cnc(Nc3ccc(N4CCN(CC5CCN(c6ccc(NC7CCC(=O)NC7=O)cc6F)CC5)CC4)cc3)nc2n1-c1ccc2c(n1)[C@@](O)(CC)CC2 (mixture of isomers) [Compound 110]
< 0.1 | C=CCn1c(=O)c2cnc(Nc3ccc(N4CCC(CN(C)C5CCN(c6cccc7c6n(C)c(=O)n7C6CCC(=O)NC6=O)CC5)CC4)cc3)nc2n1-c1cccc(C(C)(C)O)n1 (centres unmarked) [Compound 61]
< 0.1 | C=CCn1c(=O)c2cnc(Nc3ccc(C4CCN(CC5CCN(c6cccc7c6n(C)c(=O)n7C6CCC(=O)NC6=O)CC5)CC4)cc3)nc2n1-c1cccc(C(C)(C)O)n1 (centres unmarked) [Compound 66]

Same assay, conditions: engineered HT-1080 cells, 20 hours; maximum percentage of Wee1 degradation; read-out: HiBiT Wee1: Dmax

Dmax [%] | Compound
> 75 | C=CCn1c(=O)c2cnc(Nc3ccc(N4CCN(CC5CCN(c6ccc(NC7CCC(=O)NC7=O)cc6F)CC5)CC4)cc3)nc2n1-c1ccc2c(n1)[C@@](O)(CC)CC2 (mixture of isomers) [Compound 110]
50 to 75 | C=CCn1c(=O)c2cnc(Nc3ccc(N4CCC(CN(C)C5CCN(c6cccc7c6n(C)c(=O)n7C6CCC(=O)NC6=O)CC5)CC4)cc3)nc2n1-c1cccc(C(C)(C)O)n1 (centres unmarked) [Compound 61]
50 to 75 | C=CCn1c(=O)c2cnc(Nc3ccc(C4CCN(CC5CCN(c6cccc7c6n(C)c(=O)n7C6CCC(=O)NC6=O)CC5)CC4)cc3)nc2n1-c1cccc(C(C)(C)O)n1 (centres unmarked) [Compound 66]

Tested on: not listed separately
Assay: Determination of kinetic solubility
Type: physicochemical
Conditions: PBS, aqueous buffer, kinetic from dmso stock; pH 3.0; shaking at 25° C. for 2 hours; read-out: Kinetic solubility (μM) pH 3.0
Protocol: An aliquot of 30 μL stock solution (10 mM) was placed in order into their proper 96-well rack. 970 μL of PBS was added into each vial of the cap-less solubility sample plate. The assay was performed in duplicate. In each vial, a stir stick was added and sealed with a molded PTFE/Silicone plug. […] Plugs were removed after 2 hours and the stir sticks were removed using a big magnet. Then the samples were transferred from the solubility sample plate into the filter plate. All the samples were filtered using the vacuum manifold. An aliquot of 5 μL filtrate was mixed with 5 μL DMSO and 490 μL of a mixture of H2O and acetonitrile (v:v, 1:1) containing internal standard. A certain proportion of ultrapure water was used to dilute according to the peak shape. The dilution factor was changed according to the solubility values and the LC-MS/MS signals.
An aliquot of 6 μL stock solution (10 mM in DMSO) was transferred from standard (STD) stock plate into a new plate, and then 194 μL of DMSO was added to get a STD working solution of 300 μM. Then 5 μL of 300 μM working solution was mixed with 5 μL of DMSO and 490 μL of a mixture of H2O and acetonitrile (v:v, 1:1) containing internal standard and the final STD concentration was 3 μM. The STD concentration were changed according to the LC-MS/MS signals.
The sample plate was put into the autosampler and the test compound concentration was determined by LC-MS/MS.

solubility kinetic at 2 h [µM] | Compound
233 | C=CCn1c(=O)c2cnc(Nc3ccc(N4CCN(CC5CCN(c6ccc(NC7CCC(=O)NC7=O)cc6F)CC5)CC4)cc3)nc2n1-c1ccc2c(n1)[C@@](O)(CC)CC2 (mixture of isomers) [Compound 110]
299 (≈ 260 µg/mL) | C=CCn1c(=O)c2cnc(Nc3ccc(N4CCC(CN(C)C5CCN(c6cccc7c6n(C)c(=O)n7C6CCC(=O)NC6=O)CC5)CC4)cc3)nc2n1-c1cccc(C(C)(C)O)n1 (centres unmarked) [Compound 61]
252 (≈ 212 µg/mL) | C=CCn1c(=O)c2cnc(Nc3ccc(C4CCN(CC5CCN(c6cccc7c6n(C)c(=O)n7C6CCC(=O)NC6=O)CC5)CC4)cc3)nc2n1-c1cccc(C(C)(C)O)n1 (centres unmarked) [Compound 66]

Same assay, conditions: PBS, aqueous buffer, kinetic from dmso stock; pH 5.0; shaking at 25° C. for 2 hours; read-out: Kinetic solubility (μM) pH 5.0

solubility kinetic at 2 h [µM] | Compound
132 | C=CCn1c(=O)c2cnc(Nc3ccc(N4CCN(CC5CCN(c6ccc(NC7CCC(=O)NC7=O)cc6F)CC5)CC4)cc3)nc2n1-c1ccc2c(n1)[C@@](O)(CC)CC2 (mixture of isomers) [Compound 110]
203 (≈ 176 µg/mL) | C=CCn1c(=O)c2cnc(Nc3ccc(N4CCC(CN(C)C5CCN(c6cccc7c6n(C)c(=O)n7C6CCC(=O)NC6=O)CC5)CC4)cc3)nc2n1-c1cccc(C(C)(C)O)n1 (centres unmarked) [Compound 61]
148 (≈ 124 µg/mL) | C=CCn1c(=O)c2cnc(Nc3ccc(C4CCN(CC5CCN(c6cccc7c6n(C)c(=O)n7C6CCC(=O)NC6=O)CC5)CC4)cc3)nc2n1-c1cccc(C(C)(C)O)n1 (centres unmarked) [Compound 66]

Tested on: not listed separately
Assay: Pharmacokinetic study in mice (IV and PO)
Type: in vivo
Conditions: PO (10 mg/kg) vs IV (2 mg/kg), male CD1 mice
Protocol: Objective: the objective of this study was to determine the pharmacokinetics of test compound following intravenous (IV) and oral (PO) administration to male CD1 mice.
Materials: Male CD1 mouse (20-30 g, 6-8 weeks, Zhejiang Vital River Laboratory Animal Technology Co., Ltd.).
The CD1 mice were administered with the test article intravenously via tail vein at 2 mg/kg or orally at 10 mg/kg. The animals had free access to food and water. After dose administration, blood was collected from the dorsal metatarsal vein at 5 min (0.0833 h, IV only), 15 min (0.25 h), 30 min (0.5 h), 60 min (1 h), 2 h, 4 h, 6 h, 8 h and 24 h. Blood samples were placed in an anticoagulant tube with EDTA-K2, mixed adequately and centrifuged at 4° C., 4000 g for 5 minutes to get the plasma. The plasma samples were stored at −75±15° C. until analyzed by LC-MS/MS. The PK parameters were calculated using non-compartmental model by Phoenix WinNonlin 6.1 (Linear/log trapezoidal).

F [%] | Compound
106 | C=CCn1c(=O)c2cnc(Nc3ccc(N4CCN(CC5CCN(c6ccc(NC7CCC(=O)NC7=O)cc6F)CC5)CC4)cc3)nc2n1-c1ccc2c(n1)[C@@](O)(CC)CC2 (mixture of isomers) [Compound 110]
23.6 | C=CCn1c(=O)c2cnc(Nc3ccc(C4CCN(CC5CCN(c6cccc7c6n(C)c(=O)n7C6CCC(=O)NC6=O)CC5)CC4)cc3)nc2n1-c1cccc(C(C)(C)O)n1 (centres unmarked) [Compound 66]

Same assay, conditions: mouse, plasma; IV (2 mg/kg), male CD1 mice

AUC(0-inf) [ng·h/mL] | clearance [mL/min/kg] | Compound
10900 | 3.24 | C=CCn1c(=O)c2cnc(Nc3ccc(N4CCN(CC5CCN(c6ccc(NC7CCC(=O)NC7=O)cc6F)CC5)CC4)cc3)nc2n1-c1ccc2c(n1)[C@@](O)(CC)CC2 (mixture of isomers) [Compound 110]
26700 | 1.25 | C=CCn1c(=O)c2cnc(Nc3ccc(C4CCN(CC5CCN(c6cccc7c6n(C)c(=O)n7C6CCC(=O)NC6=O)CC5)CC4)cc3)nc2n1-c1cccc(C(C)(C)O)n1 (centres unmarked) [Compound 66]

Same assay, conditions: mouse, plasma; IV (2 mg/kg), male CD1 mice; read-out: T½ (converted)

half-life [h] | Compound
3.03 | C=CCn1c(=O)c2cnc(Nc3ccc(N4CCN(CC5CCN(c6ccc(NC7CCC(=O)NC7=O)cc6F)CC5)CC4)cc3)nc2n1-c1ccc2c(n1)[C@@](O)(CC)CC2 (mixture of isomers) [Compound 110]
7 | C=CCn1c(=O)c2cnc(Nc3ccc(C4CCN(CC5CCN(c6cccc7c6n(C)c(=O)n7C6CCC(=O)NC6=O)CC5)CC4)cc3)nc2n1-c1cccc(C(C)(C)O)n1 (centres unmarked) [Compound 66]

Same assay, conditions: mouse, plasma; PO (10 mg/kg), male CD1 mice

AUC(0-inf) [ng·h/mL] | Cmax [ng/mL] | Compound
53200 | 4210 | C=CCn1c(=O)c2cnc(Nc3ccc(N4CCN(CC5CCN(c6ccc(NC7CCC(=O)NC7=O)cc6F)CC5)CC4)cc3)nc2n1-c1ccc2c(n1)[C@@](O)(CC)CC2 (mixture of isomers) [Compound 110]
31600 | 1880 | C=CCn1c(=O)c2cnc(Nc3ccc(C4CCN(CC5CCN(c6cccc7c6n(C)c(=O)n7C6CCC(=O)NC6=O)CC5)CC4)cc3)nc2n1-c1cccc(C(C)(C)O)n1 (centres unmarked) [Compound 66]

Same assay, conditions: mouse, plasma; PO (10 mg/kg), male CD1 mice; read-out: T½ (converted)

half-life [h] | Compound
2.95 | C=CCn1c(=O)c2cnc(Nc3ccc(N4CCN(CC5CCN(c6ccc(NC7CCC(=O)NC7=O)cc6F)CC5)CC4)cc3)nc2n1-c1ccc2c(n1)[C@@](O)(CC)CC2 (mixture of isomers) [Compound 110]
7.2 | C=CCn1c(=O)c2cnc(Nc3ccc(C4CCN(CC5CCN(c6cccc7c6n(C)c(=O)n7C6CCC(=O)NC6=O)CC5)CC4)cc3)nc2n1-c1cccc(C(C)(C)O)n1 (centres unmarked) [Compound 66]

Tested on: NCI-H1048 cells
Assay: NCI-H1048 cell proliferation assay (CTG assay)
Type: cell-based
Conditions: Homo sapiens, 120 hours, read-out: CTG cellular assay_H1048: IC50
Procedure, shortened: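 NCI-H1048 small cell lung cancer cells (RPMI-1640, 10% FBS) were exposed to 10-point half-log compound dilutions from 10 μM to 0.316 nM for 120 h at 37° C., 5% CO2. Viability was read by CellTiter-Glo luminescence and normalized to DMSO as percent of control. EC50 and DC50 were fitted with a four-parameter logistic model.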

IC50 [µM] | Compound
≤ 0.025 | C=CCn1c(=O)c2cnc(Nc3ccc(N4CCN(CC5CCN(c6ccc(NC7CCC(=O)NC7=O)cc6F)CC5)CC4)cc3)nc2n1-c1ccc2c(n1)[C@@](O)(CC)CC2 (mixture of isomers) [Compound 110]
≤ 0.025 | C=CCn1c(=O)c2cnc(Nc3ccc(N4CCC(CN(C)C5CCN(c6cccc7c6n(C)c(=O)n7C6CCC(=O)NC6=O)CC5)CC4)cc3)nc2n1-c1cccc(C(C)(C)O)n1 (centres unmarked) [Compound 61]
≤ 0.025 | C=CCn1c(=O)c2cnc(Nc3ccc(C4CCN(CC5CCN(c6cccc7c6n(C)c(=O)n7C6CCC(=O)NC6=O)CC5)CC4)cc3)nc2n1-c1cccc(C(C)(C)O)n1 (centres unmarked) [Compound 66]

Tested on: not listed separately
Assay: Permeability study in MDCKII cells (bidirectional A to B and B to A)
Type: in vitro ADME, Canine
Conditions: dog, MDCK, pH 7.4
Protocol: MDCKII (Madin-Darby Canine Kidney cell line, wild type) cell was obtained from the Netherlands Cancer Institute, which was used for P-gp substrates or inhibitors screening and predicting the permeability of compounds with high efflux barriers such as duodenum, blood-brain barrier, hepatocyte nucleus and renal unit. The MDCKII cells with 10 to 22 passages were used for the permeability investigation.
MDCKII cells were cultured using Minimum Essential Media (MEM) at 37° C., 5% CO2 and 95% relative humidity. The cells were seeded in Transwell plate with 5.45×10^5 cells/cm^2. Then the cells were incubated in CO2 Incubator for 4-7 days for transport studies.
The complete medium was prepared by adding 10% FBS (fetal bovine serum) and 1% glutamax-1 to 500 ml MEM.
The dose concentrations of test compounds and control compounds were 1 μM. The bidirectional (A to B and B to A) permeability was evaluated. All incubations are performed in duplicate.
The regents were pre-incubated at 37±1° C. for 30 minutes. To determine the transport rate from apical to basolateral direction, 125 μL working solution (1 μM) was added to the Transwell insert (apical compartment), and 50 μL sample was immediately transferred from the apical compartment to a new 96-well plate as the initial donor sample (A-B) and mixed with 200 μL of acetonitrile or methanol containing IS. And 235 μL HBSS (10 mM HEPES, pH 7.4) was added to the receiver plate (basolateral compartment). To determine the transport rate from basolateral to apical direction, 285 μL working solution (1 μM) was added to the receiver plate (basolateral compartment), and 50 μL sample was immediately transferred from the basolateral compartment to a new 96-well plate as the initial donor sample (B-A) and mixed with 200 μL of acetonitrile or methanol containing IS. And 75 μL HBSS (10 mM HEPES, pH 7.4) was added to the Transwell insert (apical compartment). Then the plate was incubated at […] with 5% CO2 and 95% relative humidity for 120 minutes.
At the end of incubation, 50 μL samples from donor and receiver sides were transferred into a new 96-well plate. 200 μL of ice-cold acetonitrile or methanol containing appropriate internal standards (IS) was mixed with the samples. After vortex for 10 minutes, the samples are centrifuged at 3220 g for 40 minutes. An aliquot of 100 μL of the supernatant was mixed with appropriate volume of ultra-pure water and was analyzed by LC-MS/MS. All incubations are performed in duplicate.
The integrity of MDCKII cells were checked by Lucifer Yellow Rejection Assay after transport assay. The plate(s) were incubated with Lucifer Yellow solution at 37° C. for 30 minutes. The Lucifer Yellow fluorescence (to monitor monolayer integrity) was measured in a fluorescence plate reader at 480 nm excitation and 530 nm emission.
Test and reference compounds (metoprolol and digoxin) were semi-quantitatively analyzed, and the peak area ratio of the analyte and the internal standard was used to evaluate the concentration of the compounds.

efflux ratio at 120 min, 1 μM | Compound
0.89 | C=CCn1c(=O)c2cnc(Nc3ccc(N4CCN(CC5CCN(c6ccc(NC7CCC(=O)NC7=O)cc6F)CC5)CC4)cc3)nc2n1-c1ccc2c(n1)[C@@](O)(CC)CC2 (mixture of isomers) [Compound 110]

Same assay, conditions: dog, MDCK, pH 7.4, 120 minutes, apical to basolateral

Papp A→B at 120 min, 1 μM [×10⁻⁶ cm/s] | Compound
2.37 | C=CCn1c(=O)c2cnc(Nc3ccc(N4CCN(CC5CCN(c6ccc(NC7CCC(=O)NC7=O)cc6F)CC5)CC4)cc3)nc2n1-c1ccc2c(n1)[C@@](O)(CC)CC2 (mixture of isomers) [Compound 110]

Same assay, conditions: dog, MDCK, pH 7.4, 120 minutes, basolateral to apical

Papp B→A at 120 min, 1 μM [×10⁻⁶ cm/s] | Compound
2.11 | C=CCn1c(=O)c2cnc(Nc3ccc(N4CCN(CC5CCN(c6ccc(NC7CCC(=O)NC7=O)cc6F)CC5)CC4)cc3)nc2n1-c1ccc2c(n1)[C@@](O)(CC)CC2 (mixture of isomers) [Compound 110]
